According to patent USRE46792E1, “Oxazole compound and pharmaceutical composition” (Otsuka Pharmaceutical Co., Ltd., priority 2005, dated 2018):

Biological target: human PDE4D3 (PDE4D) (Homo sapiens (Human), UniProt Q08499)
Assay: Phosphodiesterase (PDE)4 inhibitory activity evaluation test ([3H]cAMP hydrolysis by PDE4D enzyme solution)
Assay type: biochemical
Details: recombinant human PDE4D3 expressed in COS-7 cells; [3H]cAMP substrate; 10 min at 30° C.; 2% DMSO
From the text: Phosphodiesterase (PDE)4 Inhibitory Activity Evaluation Test
(1) Large Scale Plasmid Preparation
Plasmid containing genes (HPDE4D) coding for human PDE4D3 cDNA (stored in Otsuka America Pharmaceutical, Inc., Maryland Research Laboratories) was transformed in E. coli, cultured on a large scale, and purified using an EndoFree™ Plasmid Maxi Kit (Qiagen).
(2) Abundant Expression and Purification of PDE4D
COS-7 cells derived from African green monkey kidneys were passage cultured in D-MEM media containing 100 units/ml penicillin, 100 μg/ml streptomycin, and 10% FBS. The cells were transfected with the plasmid prepared in (1) above using Lipofectamine™ 2000 (hereinafter referred to as “LF2000”, Invitrogen), following the manufacturer's protocol. The COS-7 cells were inoculated in a 10 cm culture dish on the previous day so as to be 90% confluent on the day of transfection. Culture dishes each containing a plasmid solution (solution A) in which 24 μg of plasmid was diluted in 1.5 ml Opti-MEM I Reduced Serum Medium (Invitrogen) and an LF2000 solution (solution B) in which 60 μl of LF2000 was diluted in 1.5 ml Opti-MEM I Reduced Serum Medium were separately allowed to stand for 5 minutes at room temperature. Solutions A and B were then mixed and the mixture was allowed to stand for 20 minutes at room temperature. The mixture was added to the cultured cells, and incubated at 37° C. (5% CO2) overnight. On the following day, the medium was replaced, and the mixture was further incubated overnight to harvest the cells in the following manner. The cells were washed with PBS (Sigma) once, and 10 ml of a Trypsin-EDTA solution (Sigma) was added to each culture dish. After the solution was distributed to each of the culture dishes, the cells were detached, and the dishes were allowed to stand for about 5 minutes at 37° C. The detached cells from the dishes were suspended in media, collected into centrifuge tubes, and centrifuged at 1200 rpm for 5 minutes at 4° C., and supernatants were removed. The cells were further washed with PBS, and stored at −80° C. KHEM buffer (100 mM Hepes, 50 mM KCl, 10 mM EGTA, 1.92 mM MgCl2, pH 7.4) containing 1 mM DTT, 1 μg/ml antipain, 1 μg/ml aprotinin, 1 μg/ml leupeptin, 1 μg/ml pepstatin A, 157 μg/ml benzamidine, and 120 μg/ml Pefabloc SC was added to the stored cells, and the contents were moved to a glass homogenizer to be homogenized on ice. The cell suspension was centrifuged at 1000 rpm for 5 minutes at 4° C., and the supernatant was further centrifuged at 14000 rpm for one hour. After centrifugation, the supernatant was dispensed into new tubes as PDE4D enzyme solutions, and stored in a deep freezer.
(3) Determination on Dilution Ratio of PDE4D Enzyme Solutions
The PDE4D enzyme solutions prepared in (2) above were dissolved in 20 mM Tris-HCl solution (pH 7.4) to give 10-, 25-, 50-, 100-, 200-, 400-, and 800-fold dilutions of the enzyme solutions. PDE4D activities were measured according to (4) below. The percentage of catalyzed cAMP to total cAMP was calculated, and such a dilution, in which the percentage was between 10% and 30%, was adopted in the inhibitory study below.
(4) Measurement of PDE4D Inhibitory Activity
Necessary amounts of test compounds were weighed, and 100% dimethylsulfoxide (DMSO) was added thereto to adjust the concentration to 10 mM. The solutions were stored in a freezer as stock solutions of each test compound. After being thawed when required, the solutions were diluted 20-fold with 100% DMSO to give a 500 μM concentration. Further, 10-fold serial dilutions were made with 100% DMSO to prepare test compounds of different concentrations. 2 μl of solutions containing one of each of the test compound were separately added into 1.2 ml tubes in which 23 μl of 20 mM Tris-HCl (pH 7.4) had been placed beforehand. […]

Chain of human PDE4D3 (PDE4D) (Q08499 other isoform, or with tags, fused parts or gaps): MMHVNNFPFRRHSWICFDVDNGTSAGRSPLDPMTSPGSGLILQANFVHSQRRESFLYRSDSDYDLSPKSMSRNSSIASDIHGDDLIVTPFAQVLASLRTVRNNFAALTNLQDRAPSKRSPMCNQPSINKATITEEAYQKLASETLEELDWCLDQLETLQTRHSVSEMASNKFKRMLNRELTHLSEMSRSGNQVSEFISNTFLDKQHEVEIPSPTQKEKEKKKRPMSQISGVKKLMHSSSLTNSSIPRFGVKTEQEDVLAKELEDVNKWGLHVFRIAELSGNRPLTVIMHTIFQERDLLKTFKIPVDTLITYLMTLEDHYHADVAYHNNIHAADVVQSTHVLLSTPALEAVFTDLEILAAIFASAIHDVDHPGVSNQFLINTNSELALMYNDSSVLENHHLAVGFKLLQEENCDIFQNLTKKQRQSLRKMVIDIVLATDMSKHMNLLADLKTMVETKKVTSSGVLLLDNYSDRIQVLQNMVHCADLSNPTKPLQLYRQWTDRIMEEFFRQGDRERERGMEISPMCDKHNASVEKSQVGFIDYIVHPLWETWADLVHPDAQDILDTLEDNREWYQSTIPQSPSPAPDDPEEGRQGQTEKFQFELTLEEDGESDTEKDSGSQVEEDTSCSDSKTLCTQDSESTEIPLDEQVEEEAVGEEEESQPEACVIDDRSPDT

Row | Compound | IC50 [nM]
1 | CCOc1ccc(-c2nc(CCC(=O)c3ncccc3C)co2)cc1OCC [Example 181, 3-[2-(3,4-diethoxyphenyl)oxazol-4-yl]-1-(3-methylpyridin-2-yl)propan-1-one] | < 50
2 | CCOc1cc(-c2nc(CNC(=O)c3ccccc3OCC)co2)ccc1OC(F)F [Example 349, N-[2-(4-difluoromethoxy-3-ethoxyphenyl)oxazol-4-ylmethyl]-2-ethoxybenzamide] | < 50
3 | C=CCOc1cc(-c2nc(CCC(=O)c3ccccc3OCC=C)co2)ccc1OC [Example 166, 3-[2-(3-allyloxy-4-methoxyphenyl)oxazol-4-yl]-1-(2-allyloxyphenyl)propan-1-one] | < 50
4 | C=CCOc1cc(-c2nc(CNC(=O)c3ncccc3C)co2)ccc1OC [Example 21, N-[2-(3-allyloxy-4-methoxyphenyl)oxazol-4-ylmethyl]-3-methylpicolinamide] | < 50
5 | COc1ccc(-c2nc(CNC(=O)c3ncccc3C)co2)cc1OCC1CC1 [Example 36, N-[2-(3-cyclopropylmethoxy-4-methoxyphenyl)oxazol-4-ylmethyl]-3-methylpicolinamide] | < 50
6 | COc1ccc(-c2nc(CNC(=O)c3ncccc3C)co2)cc1OCC(C)C [Example 62, N-[2-(3-isobutoxy-4-methoxyphenyl)oxazol-4-ylmethyl]-3-methylpicolinamide] | < 50
7 | CCOc1ccccc1C(=O)NCc1coc(-c2ccc(OC(F)F)c(OC(C)C)c2)n1 [Example 352, N-[2-(4-difluoromethoxy-3-isopropoxyphenyl)oxazol-4-ylmethyl]-2-ethoxybenzamide] | < 50
8 | COc1ccc(-c2nc(CCC(=O)c3ccccc3OCCF)co2)cc1OC(C)C [Example 275, 1-(2-fluoroethoxyphenyl)-3-[2-(3-isopropoxy-4-methoxyphenyl)oxazol-4-yl]propan-1-one] | < 50
9 | CCOc1cccnc1C(=O)CCc1coc(-c2ccc(OC)c(OC3CCCC3)c2)n1 [Example 132, 3-[2-(3-cyclopentyloxy-4-methoxyphenyl)oxazol-4-yl]-1-(3-ethoxypyridin-2-yl)propan-1-one] | < 50
10 | CCOc1ccccc1C(=O)NCc1coc(-c2ccc(OC(F)F)c(OCC(F)F)c2)n1 [Example 382, N-{2-[4-difluoromethoxy-3-(2,2-difluoroethoxy)phenyl]-oxazol-4-ylmethyl}-2-ethoxy benzamide] | < 50
11 | C=CCOc1cc(-c2nc(CNC(=O)c3ncccc3C)co2)ccc1OC(F)F [Example 339, N-[2-(3-allyloxy-4-difluoromethoxyphenyl)oxazol-4-ylmethyl]-3-methylpicolinamide] | < 50
12 | CCOc1cc(-c2nc(CNC(=O)c3ncccc3C)co2)ccc1OC(F)F [Example 338, N-[2-(4-difluoromethoxy-3-ethoxyphenyl)-oxazol-4-ylmethyl]-3-methylpicolinamide] | < 50
13 | COc1ccc(-c2nc(CCC(=O)c3ncccc3C)co2)cc1OCC(F)F [Example 309, 3-{2-[3-(2,2-difluoroethoxy)-4-methoxyphenyl]oxazol-4-yl}-1-(3-methylpyridin-2-yl)propan-1-one] | < 50
14 | C=CCOc1cc(-c2nc(CCC(=O)c3ccccc3OCC)co2)ccc1OC [Example 104, 3-[2-(3-allyloxy-4-methoxyphenyl)oxazol-4-yl]-1-(2-ethoxyphenyl)propan-1-one] | < 50
15 | CCCOc1cc(-c2nc(CCC(=O)c3ncccc3C)co2)ccc1OC(F)F [Example 329, 3-[2-(4-difluoromethoxy-3-propoxyphenyl)oxazol-4-yl]-1-(3-methylpyridin-2-yl)propan-1-one] | < 50
16 | CCOc1cc(-c2nc(CCC(=O)c3ccccc3OCC(F)F)co2)ccc1OC [Example 280, 1-[2-(2,2-difluoroethoxy)phenyl]-3-[2-(3-ethoxy-4-methoxyphenyl)oxazol-4-yl]propan-1-one] | < 50

Row | Compound | IC50 [nM]
17 | CCOc1ccc(-c2nc(CCC(=O)c3ccccc3OCC)co2)cc1OCC [Example 182, 3-[2-(3,4-diethoxyphenyl)oxazol-4-yl]-1-(2-ethoxyphenyl)propan-1-one] | < 50
18 | CCC(CC)Oc1cc(-c2nc(CNC(=O)c3ncccc3C)co2)ccc1OC(F)F [Example 342, N-{2-[4-difluoromethoxy-3-(1-ethylpropoxy)phenyl]oxazol-4-ylmethyl}-3-methylpicolinamide] | < 50
19 | CCOc1ccccc1C(=O)NCc1coc(-c2ccc(OC(F)F)c(OCC(C)C)c2)n1 [Example 348, N-[2-(4-difluoromethoxy-3-isobutoxyphenyl)oxazol-4-ylmethyl]-2-ethoxybenzamide] | < 50
20 | CCCOc1cc(-c2nc(CNC(=O)c3ccccc3OCC)co2)ccc1OC(F)F [Example 350, N-[2-(4-difluoromethoxy-3-propoxyphenyl)oxazol-4-ylmethyl]-2-ethoxybenzamide] | < 50
21 | CCOc1ccc(-c2nc(CCC(=O)c3ccccc3OCCF)co2)cc1OCC [Example 289, 3-[2-(3,4-diethoxyphenyl)oxazol-4-yl]-1-[2-(2-fluoroethoxy)phenyl]propan-1-one] | < 50
22 | Cc1cccnc1C(=O)NCc1coc(-c2ccc(OC(F)F)c(OCC(C)C)c2)n1 [Example 344, N-[2-(4-difluoromethoxy-3-isobutoxyphenyl)oxazol-4-ylmethyl]-3-methylpicolinamide] | < 50
23 | 3-[2-(3-hydroxy-4-methoxyphenyl)oxazol-4-yl]-1-(2-methoxymethoxy phenyl)propan-1-one [Example 232] | < 50
24 | Cc1cccnc1C(=O)NCc1coc(-c2ccc(OC(F)F)c(OC(C)C)c2)n1 [Example 341, N-[2-(4-difluoromethoxy-3-isopropoxyphenyl)oxazol-4-ylmethyl]-3-methylpicolinamide] | < 50
25 | CCOc1ccccc1C(=O)CCc1coc(-c2ccc(OC)c(OCC3CC3)c2)n1 [Example 102, 3-[2-(3-cycropropylmethoxy-4-methoxyphenyl)oxazol-4-yl]-1-(2-ethoxyphenyl)propan-1-one] | < 50
26 | CCOc1cc(-c2nc(CCC(=O)c3ccccc3OC)co2)ccc1OC [Example 172, 3-[2-(3-ethoxy-4-methoxyphenyl)oxazol-4-yl]-1-(2-methoxyphenyl)propan-1-one] | < 50
27 | COc1ccc(-c2nc(CCC(=O)c3ncccc3OC)co2)cc1OCC(F)(F)F [Example 129, 1-(3-methoxypyridin-2-yl)-3-{2-[4-methoxy-3-(2,2,2-trifluoroethoxy)phenyl]oxazol-4-yl}propan-1-one] | < 50
28 | C=CCOc1cc(-c2nc(CCC(=O)c3ccccc3OCC)co2)ccc1OC(F)F [Example 335, 3-[2-(3-allyloxy-4-difluoromethoxyphenyl)oxazol-4-yl]-1-(2-ethoxyphenyl)propan-1-one] | < 50
29 | CCOc1cc(-c2nc(CCC(=O)c3ncccc3C)co2)ccc1OC [Example 138, 3-[2-(3-ethoxy-4-methoxyphenyl)oxazol-4-yl]-1-(3-methylpyridin-2-yl)propan-1-one] | < 50
30 | C=CCCOc1cc(-c2nc(CCC(=O)c3ccccc3OCCF)co2)ccc1OC [Example 276, 3-[2-(3-but-3-enyloxy-4-methoxyphenyl)oxazol-4-yl]-1-[2-(2-fluoroethoxy)phenyl]propan-1-one] | < 50
31 | CCC(C)Oc1cc(-c2nc(CCC(=O)c3ncccc3C)co2)ccc1OC (stereo not shown) [Example 311, 3-[2-(3-sec-butoxy-4-methoxyphenyl)oxazol-4-yl]-1-(3-methylpyridin-2-yl)propan-1-one] | < 50
